In article PMC4692446, “Compound K Production from Red Ginseng Extract by β-Glycosidase from Sulfolobus solfataricus Supplemented with α-L-Arabinofuranosidase from Caldicellulosiruptor saccharolyticus” (PLoS ONE, 2015):

Molecular target: T1, SS-bgly (β-glycosidase from Sulfolobus solfataricus) (Saccharolobus solfataricus, UniProt P22498)
T1 construct: gene lacS; full-length gene from genomic DNA in pET-24a, NdeI/BamHI, own stop codon, no tag; E. coli ER2566; heat-treated soluble enzyme (75°C)
T1 sequence (P22498 1-489): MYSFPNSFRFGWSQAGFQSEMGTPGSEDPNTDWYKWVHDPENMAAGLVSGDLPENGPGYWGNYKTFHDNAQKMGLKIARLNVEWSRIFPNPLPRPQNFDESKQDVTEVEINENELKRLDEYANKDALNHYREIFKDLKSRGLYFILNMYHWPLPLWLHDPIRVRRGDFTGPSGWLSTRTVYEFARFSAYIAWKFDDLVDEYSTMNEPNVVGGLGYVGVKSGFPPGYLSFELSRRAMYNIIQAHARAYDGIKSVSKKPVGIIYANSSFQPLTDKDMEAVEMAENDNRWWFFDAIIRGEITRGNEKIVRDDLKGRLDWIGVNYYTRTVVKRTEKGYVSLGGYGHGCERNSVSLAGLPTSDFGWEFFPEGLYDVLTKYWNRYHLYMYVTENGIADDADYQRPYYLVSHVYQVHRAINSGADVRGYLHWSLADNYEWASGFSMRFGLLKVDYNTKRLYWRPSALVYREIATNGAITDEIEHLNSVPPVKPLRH
Experiment: TLC of reaction products
Assay type: biochemical
Details: 80°C, pH 6.0 citrate/phosphate; SS-bgly alone; product C-Mc

## CC(C)=CCC[C@](C)(O[C@@H]1O[C@H](CO[C@@H]2O[C@@H](CO)[C@H](O)[C@H]2O)[C@@H](O)[C@H](O)[C@H]1O)[C@H]1CC[C@]2(C)[C@@H]1[C@H](O)C[C@@H]1[C@@]3(C)CC[C@H](O[C@@H]4O[C@H](CO)[C@@H](O)[C@H](O)[C@H]4O[C@@H]4O[C@H](CO)[C@@H](O)[C@H](O)[C@H]4O)C(C)(C)[C@@H]3CC[C@]12C [Rc, ginsenoside Rc]
  TLC of reaction products: whereas only C-Mc was obtained by SS-bgly alone
